# Reference: patent US20050261290A1, “Novel compounds of proline and morpholine derivatives” (priority 2004, published 2005)
# Target: human 11b-hsd-1 (Homo sapiens, UniProt P28845)
# Assay: Inhibition constant Ki of human 11b-hsd-1 (3H-cortisone to 3H-cortisol conversion, HPLC)
# Format: biochemical
# Details: for inhibition at 0.1 µM: 0.1 μM compound; for Ki: apparent Ki, read-out: Ki app
# Procedure: In each well, varying amounts of compounds are incubated with a fixed amount of 11b-hsd-1 (4 nM) and NADPH (500 μM) for 30 to 40 min at room temperature in the assay buffer. The enzyme concentration was determined by titration using reversible tight-binding inhibitors. […] The area of 3H-cortisol is calculated and plotted versus time to determine a linear velocity. […] Where vi, and vo are the rates of cortisol formation in the presence and in the absence of inhibitor, respectively, I is the inhibitor concentration and E is the 11 b-hsd-1 concentration in the assay buffer. […] NADPH, Glucose-6-Phosphate (G6P), and Glucose-6-Phosphate dehydrogenase was purchased from Sigma.
# Sequence of human 11b-hsd-1 (P28845 whole entry): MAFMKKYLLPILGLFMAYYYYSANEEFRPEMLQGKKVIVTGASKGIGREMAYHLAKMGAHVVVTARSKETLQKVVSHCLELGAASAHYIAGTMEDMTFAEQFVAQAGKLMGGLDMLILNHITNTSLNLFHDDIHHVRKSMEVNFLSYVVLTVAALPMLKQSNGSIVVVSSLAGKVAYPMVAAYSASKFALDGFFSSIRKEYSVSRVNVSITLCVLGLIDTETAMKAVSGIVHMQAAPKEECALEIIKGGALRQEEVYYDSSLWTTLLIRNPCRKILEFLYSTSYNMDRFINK
Structure (SMILES),inhibition at 0.1 µM,Ki
O=C(NC1CCCCC1)[C@H]1CCCN1Cc1ccccc1 [Example 282],100%,2.34 nM
O=C(N[C@@H]1CCc2ccccc21)[C@H]1CCCN1Cc1ccccc1 [Example 283],100%,5.6 nM
N#Cc1ccccc1CN1CCC[C@@H]1C(=O)N[C@@H]1CCc2ccccc21 [Example 284],93.1%,11.5 nM
N#Cc1ccc(CN2CCC[C@@H]2C(=O)N[C@@H]2CCc3ccccc32)cc1 [Example 285],100%,7.82 nM
CCCN1CCC[C@@H]1C(=O)N[C@@H]1CCc2ccccc21 [Example 286],91.4%,5.8 nM
CC(C)CN1CCC[C@@H]1C(=O)N[C@H](C)c1ccccc1 [Example 287],98.7%,3.39 nM
CC(C)CN1CCC[C@@H]1C(=O)N[C@H]1c2ccccc2C[C@H]1O [Example 288],99.1%,5.51 nM
CC(C)CN1CCC[C@@H]1C(=O)NC1Cc2ccccc2C1 [Example 289],100%,1.2 nM
CC(C)CN1CCC[C@@H]1C(=O)NC(C)c1ccc(F)cc1 (stereo partly drawn) [Example 290],96.2%,6.85 nM
CC(C)CN1CCC[C@@H]1C(=O)N[C@@H]1CCc2ccccc21 [Example 291],100%,1 nM
C[C@@H](NC(=O)[C@H]1CCCN1CC1CCCC1)c1ccccc1 [Example 292],92.1%,9.59 nM
O=C(N[C@H]1c2ccccc2C[C@H]1O)[C@H]1CCCN1CC1CCCC1 [Example 293],92.6%,22.4 nM
O=C(NC1Cc2ccccc2C1)[C@H]1CCCN1CC1CCCC1 [Example 294],100%,8.52 nM
O=C(N[C@@H]1CCCc2ccccc21)[C@H]1CCCN1Cc1ccccc1 [Example 295],100%,4.5 nM
C[C@@H](NC(=O)[C@H]1CCCN1Cc1ccccc1)c1ccc(Cl)cc1 [Example 296],95.7%,11.4 nM
N#Cc1ccc(CN2CCC[C@@H]2C(=O)N[C@@H]2CCCc3ccccc32)cc1 [Example 297],100%,3.7 nM
CC(C)CN1CCC[C@@H]1C(=O)N[C@H](C)c1ccc(Cl)cc1 [Example 298],100%,1.77 nM
O=C(N[C@@H]1CCCc2ccccc21)[C@H]1CCCN1CC1CCCC1 [Example 299],100%,2.23 nM
O=C(N[C@H]1c2ccccc2C[C@H]1O)[C@H]1COCCN1Cc1ccccc1 [Example 301],89.2%,11.1 nM
O=C(NC1CCCCC1)[C@H]1COCCN1Cc1ccccc1 [Example 302],99.1%,3.2 nM
CN(C(=O)[C@H]1COCCN1Cc1ccccc1)C1CCCCC1 [Example 303],50%,4.4 nM
O=C(N[C@@H]1CCc2ccccc21)[C@H]1COCCN1Cc1ccccc1 [Example 304],59.4%,3.6 nM
N#Cc1ccccc1CN1CCOC[C@@H]1C(=O)N[C@@H]1CCc2ccccc21 [Example 305],98.7%,3.4 nM
N#Cc1ccc(CN2CCOC[C@@H]2C(=O)NC2CCCCC2)cc1 [Example 306],100%,4.9 nM

Structure (SMILES),inhibition at 0.1 µM,Ki
CC(C)CN1CCOC[C@@H]1C(=O)NC1Cc2ccccc2C1 [Example 307],100%,12.8 nM
CC(C)CN1CCOC[C@@H]1C(=O)N[C@@H]1CCc2ccccc21 [Example 308],97.7%,5.71 nM
C[C@@H](NC(=O)[C@H]1COCCN1CC1CCCC1)c1ccccc1 [Example 309],86.1%,32 nM
O=C(N[C@H]1c2ccccc2C[C@H]1O)[C@H]1COCCN1CC1CCCC1 [Example 310],92%,29.5 nM
CN(Cc1ccccc1Cl)C(=O)[C@H]1COCCN1CC1CCCC1 [Example 312],95.3%,14 nM
O=C(N[C@@H]1CCCc2ccccc21)[C@H]1COCCN1Cc1ccccc1 [Example 313],97%,4.89 nM
C[C@@H](NC(=O)[C@H]1COCCN1Cc1ccccc1)c1ccc(Cl)cc1 [Example 314],94.8%,8.96 nM
N#Cc1ccc(CN2CCOC[C@@H]2C(=O)N[C@@H]2CCCc3ccccc32)cc1 [Example 315],96.1%,6.63 nM
CC(C)CN1CCOC[C@@H]1C(=O)N[C@@H]1CCCc2ccccc21 [Example 316],91%,10.9 nM
CC(C)CN1CCOC[C@@H]1C(=O)N[C@H](C)c1ccc(Cl)cc1 [Example 317],91.1%,8.72 nM
O=C(N[C@@H]1CCCc2ccccc21)[C@H]1COCCN1CC1CCCC1 [Example 318],84.8%,13 nM
O=C(NC1C2CC3CC(C2)CC1C3)[C@@H]1C[C@H](Oc2cccc(F)c2)CN1 (stereo partly drawn) [Example 319],100%,1.7 nM
Cc1ccccc1O[C@@H]1CN[C@H](C(=O)NC2C3CC4CC(C3)CC2C4)C1 (stereo partly drawn) [Example 320],100%,5.5 nM
O=C(NC1C2CC3CC(C2)CC1C3)[C@@H]1C[C@H](Oc2ccc(F)cc2)CN1 (stereo partly drawn) [Example 321],100%,1 nM
O=C(NCc1ccccc1)C1COCCN1CC1CCCCC1 (stereo not drawn) [Example 322],62.5%,45 nM
N#Cc1ccc(CN2CCC[C@@H]2C(=O)NCc2ccccc2)cc1 [Example 323],69.7%,110 nM
O=C(NCc1ccc(F)cc1)[C@H]1CCCN1CCC(F)(F)F [Example 324],69.2%,69 nM
O=C(NCc1ccc(Cl)cc1)[C@H]1CCCN1Cc1ccc(Cl)cc1 [Example 325],35.7%,–
Cc1ccc(CNC(=O)[C@H]2CCCN2CCC(F)(F)F)cc1 [Example 326],69.4%,69 nM
O=C(NCc1c(F)cccc1F)[C@H]1COCCN1Cc1ccccc1 [Example 327],68.9%,110 nM
N#Cc1ccc(CN2CCC[C@@H]2C(=O)NCC2CCCCC2)cc1 [Example 328],100%,3.2 nM
CC(C)CN1CCC[C@@H]1C(=O)NCC1(O)CCCC1 [Example 330],83.5%,30 nM
CCCN1CCOC[C@@H]1C(=O)NC1CCCCC1 [Example 331],86.6%,26 nM
CC(C)CN1CCOC[C@@H]1C(=O)NC1CCCCC1 [Example 332],100%,2.2 nM

Structure (SMILES),inhibition at 0.1 µM,Ki
CC(C)CN1CCOC[C@@H]1C(=O)N(C)C1CCCCC1 [Example 333],100%,4 nM
N#Cc1ccc(CN2CCOC[C@@H]2C(=O)NCC2CCCCC2)cc1 [Example 334],100%,2.4 nM
CCCN1CCOC[C@@H]1C(=O)NCC1CCCCC1 [Example 335],100%,6.9 nM
CC(C)CN1CCOC[C@@H]1C(=O)NCC1CCCCC1 [Example 336],100%,1 nM
CC(C)CN1C[C@H](O)C[C@@H]1C(=O)NCC1CCCCC1 [Example 337],97.8%,13 nM
O=C(NC1C2CC3CC(C2)CC1C3)[C@@H]1C[C@H](Oc2ccccc2)CN1 (stereo partly drawn) [Example 338],100%,1 nM
O=C(NC1C2CC3CC(C2)CC1C3)[C@@H]1C[C@H](Oc2ccc(Cl)cc2)CN1 (stereo partly drawn) [Example 339],97.7%,1 nM
O=C(NC1C2CC3CC(C2)CC1C3)[C@@H]1NCC[C@H]1c1ccccc1 (stereo partly drawn) [Example 340],100%,5.2 nM
O=C(NC1C2CC3CC(C2)CC1C3)[C@@H]1C[C@H](Oc2ccccc2F)CN1 (stereo partly drawn) [Example 341],100%,0.7 nM
O=C(NC1C2CC3CC(C2)CC1C3)[C@H]1NCC[C@@H]1C1CCCC1 (stereo partly drawn) [Example 342],97.5%,9.9 nM
Cc1ccc(O[C@@H]2CN[C@H](C(=O)NC3C4CC5CC(C4)CC3C5)C2)cn1 (stereo partly drawn) [Example 343],98.6%,6.3 nM
CC(C)[C@H]1CCN[C@@H]1C(=O)NC1C2CC3CC(C2)CC1C3 (stereo partly drawn) [Example 344],90.7%,11 nM
CC[C@H]1CCN[C@@H]1C(=O)NC1C2CC3CC(C2)CC1C3 (stereo partly drawn) [Example 345],76.5%,27 nM
O=C(NC1C2CC3CC(C2)CC1C3)[C@H]1CNC[C@H](c2ccccc2)C1 (stereo partly drawn) [Example 346],90.2%,18 nM
Cc1cc(C)cc(O[C@@H]2CN[C@H](C(=O)NC3C4CC5CC(C4)CC3C5)C2)c1 (stereo partly drawn) [Example 347],96.6%,3.3 nM
Cc1cccc(O[C@@H]2CN[C@H](C(=O)NC3C4CC5CC(C4)CC3C5)C2)c1 (stereo partly drawn) [Example 348],100%,2.7 nM
Cc1cc(Cl)ccc1O[C@@H]1CN[C@H](C(=O)NC2C3CC4CC(C3)CC2C4)C1 (stereo partly drawn) [Example 349],100%,1.8 nM
CCc1ccccc1O[C@@H]1CN[C@H](C(=O)NC2C3CC4CC(C3)CC2C4)C1 (stereo partly drawn) [Example 350],100%,2.2 nM
Cc1cc(O[C@@H]2CN[C@H](C(=O)NC3C4CC5CC(C4)CC3C5)C2)ccc1F (stereo partly drawn) [Example 351],100%,1 nM
O=C(NC1C2CC3CC(C2)CC1C3)[C@@H]1C[C@H](Oc2cc(F)ccc2F)CN1 (stereo partly drawn) [Example 352],100%,1 nM
COc1cc(F)ccc1O[C@@H]1CN[C@H](C(=O)NC2C3CC4CC(C3)CC2C4)C1 (stereo partly drawn) [Example 353],100%,4.9 nM
CCc1ccc(O[C@@H]2CN[C@H](C(=O)NC3C4CC5CC(C4)CC3C5)C2)c(OC)c1 (stereo partly drawn) [Example 354],100%,2.1 nM
O=C(NC1C2CC3CC(C2)CC1C3)[C@@H]1C[C@H](Oc2ccc(F)c(F)c2F)CN1 (stereo partly drawn) [Example 355],100%,1 nM
